Legend:
M.tb [1] = assay: CFU assay, M.tb-infected human in vitro TB granulomas; assay type: cell-based, Mycobacterium tuberculosis; conditions: 30 μM sabutoclax, 7 days
M.tb [2] = assay: CFU assay, M.tb-infected murine lung macrophages; assay type: cell-based, Mycobacterium tuberculosis; conditions: 30 μM pan inhibitor, 2 days of treatment, MOI 1
M.tb [3] = assay: CFU assay, M.tb-infected murine BMDMs; assay type: cell-based, Mycobacterium tuberculosis; conditions: 30 μM pan inhibitor, 4 days of treatment, MOI 1
M.tb [4] = assay type: in vivo, BALB/c mice; conditions: isoniazid positive control, vs placebo
M.tb-lux = assay type: cell-based, Mycobacterium tuberculosis

Compound: Cc1cc2c(C(=O)NC[C@H](C)c3ccccc3)c(O)c(O)cc2c(O)c1-c1c(C)cc2c(C(=O)NC[C@H](C)c3ccccc3)c(O)c(O)cc2c1O [sabutoclax]
- M.tb growth in human granulomas (CFU) (M.tb [1]): significant reduction in M.tb growth
- number of M.tb CFUs in lung macrophages (M.tb [2]): reduction in the number of M.tb CFUs
- M.tb CFUs normalized to DMSO control in BMDMs (M.tb [3]): reduction in the number of M.tb CFUs

Compound: NNC(=O)c1ccncc1 [isoniazid]
- M.tb growth in murine lungs (CFU) (M.tb [4]): significantly reduced M.tb growth in murine lungs
- M.tb growth in murine spleen (CFU) (M.tb [4]): significantly reduced M.tb growth
- acid fast stained M.tb in the mouse lung (M.tb [4]): reduction in bacteria
- lung inflammation (hematoxylin and eosin stain) (M.tb [4]): reduced inflammation

Compound: CC(C)c1ccccc1Cc1cc(C(=O)Nc2ccc(S(=O)(=O)c3ccccc3C(C)(C)C)cc2)c(O)c(O)c1O [TW37]
- number of M.tb CFUs in lung macrophages (M.tb [2]): reduction in the number of M.tb CFUs
- M.tb CFUs normalized to DMSO control in BMDMs (M.tb [3]): reduction in the number of M.tb CFUs

Compound: Cc1c(-c2c(-c3ccc(F)o3)sc3ncnc(O[C@H](Cc4ccccc4OCc4ccnn4CC(F)(F)F)C(=O)O)c23)ccc(OCCN2CCN(C)CC2)c1Cl [S63845]
- M.tb growth in human MDMs (luciferase) (M.tb-lux): reduced M.tb growth in donor 1 after 4 days, but to a limited extent relative to the pan inhibitor Sabutoclax

Reference: patent US20240180929A1, “TREATMENT OF INFECTIOUS DISEASES USING BCL-2 FAMILY PROTEIN INHIBITORS” (TEXAS BIOMEDICAL RESEARCH INSTITUTE, priority 2020, published 2024)
